What was measured:
[1] = tested on: Phakopsora pachyrhizi; assay: Phakopsora pachyrhizi / soybean / leaf disc preventative (Asian soybean rust); assay type: in vivo; conditions: foliar, 288 h, 200 ppm in the applied formulation, soybean leaf disks, inoculated one day after application, assessed 12 to 14 days after application, vs untreated, read-out: disease control
In short: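 Read-out is percent disease control relative to untreated check discs, assessed once untreated discs show adequate disease, 12 to 14 days after application. Compounds, tested at 200 ppm in the applied formulation, are sprayed onto soybean leaf discs one day before inoculation with a spore suspension.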

[2] = tested on: Puccinia recondita f. Sp. Tritici; assay: Puccinia recondita f. sp. tritici / wheat / leaf disc preventative (brown rust); assay type: in vivo; conditions: foliar, 168 h, 200 ppm in the applied formulation, wheat leaf segments cv. Kanzler, preventative, inoculated 1 day after application, assessed 7 to 9 days after application, vs untreated, read-out: disease control
In short: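 Wheat cv. Kanzler leaf segments on agar were sprayed with formulated compound in water, then inoculated with spores 1 day later. Incubated at 19° C, 75% rh, 12 h light/12 h dark; percent disease control versus untreated scored 7 to 9 days after application.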

[3] = tested on: Uromyces viciae-Fabae; assay: Uromyces viciae-fabae / field bean / leaf disc preventative (faba-bean rust); assay type: in vivo; conditions: foliar, 288 h, 100 ppm in the applied formulation, field bean leaf discs, inoculated two hours after application, assessed 12 days after application, vs untreated, read-out: disease control
Description: Leaf disks or leaf segments of various plant species are cut from plants grown in a greenhouse. The cut leaf disks or segments are placed in multiwell plates (24-well format) onto water agar. The leaf disks are sprayed with a test solution before (preventative) or after (curative) inoculation. Compounds to be tested are prepared as DMSO solutions (max. 10 mg/ml) which are diluted to the appropriate concentration with 0.025% Tween20 just before spraying. The inoculated leaf disks or segments are incubated under defined conditions (temperature, relative humidity, light, etc.) according to the respective test system. A single evaluation of disease level is carried out 3 to 14 days after inoculation, depending on the pathosystem. Percent disease control relative to the untreated check leaf disks or segments is then calculated.
Field bean leaf discs are placed on water agar in multiwell plates (96-well format) and 10 μl of the formulated test compound diluted in acetone and a spreader pipetted onto the leaf disc. Two hours after application leaf discs are inoculated by spraying a spore suspension on the lower leaf surface. The leaf discs are incubated in a climate cabinet at 22° C. with 18 hour day and 70% relative humidity. The activity of a compound is assessed as percent disease control compared to untreated when an appropriate level of disease damage appears in untreated check leaf disks (12 days after application).
The following compounds at 100 ppm in the applied formulation give at least 80% disease control in this test when compared to untreated control leaf discs under the same conditions, which show extensive disease development.

[4] = tested on: Glomerella Lagenarium (Colletotrichum Lagenarium); assay: Glomerella lagenarium (Colletotrichum lagenarium) liquid culture / cucumber / preventative (anthracnose); assay type: cell-based; conditions: Colletotrichum orbiculare; 20 ppm in the applied formulation; liquid culture in PDB, 24° C., inhibition of growth measured photometrically 3 to 4 days after application, vs untreated; read-out: disease control
In short: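 Conidia from cryogenic storage were mixed into potato dextrose broth. This was added to compound diluted from DMSO into 0.025% Tween20, tested at 20 ppm. Plates were incubated in the dark at 24 °C and 96% relative humidity, and growth was read photometrically after 2–7 days as % activity versus untreated check.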

[5] = tested on: Puccinia recondita f. Sp. Tritici; assay: Puccinia recondita f. sp. tritici / wheat / leaf disc curative (brown rust); assay type: in vivo; conditions: foliar, 144 h, 200 ppm in the applied formulation, wheat leaf segments cv. Kanzler, applied 1 day after inoculation, assessed 6 to 8 days after application, vs untreated, read-out: disease control
In short: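 Spray application came one day after spore inoculation of Kanzler wheat leaf segments kept on agar. Conditions: 19° C, 75% relative humidity, dark before treatment and 12 h light/12 h dark after. Efficacy = % disease control compared with untreated, 6–8 days post-application.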

melting point [°C]	SMILES	pest or weed control at 200 ppm [1] [%]	pest or weed control at 200 ppm [2] [%]	pest or weed control at 100 ppm [3] [%]	inhibition of growth at 20 ppm [4] [%]	pest or weed control at 200 ppm [5] [%]
53 to 58	Cc1cc(C)n(Cc2ccc(-c3noc(C(F)(F)F)n3)cc2)n1 [Compound 1.15, 3-[4-[(3,5-dimethylpyrazol-1-yl)methyl]phenyl]-5-(trifluoromethyl)-1,2,4-oxadiazole]	≥ 80	≥ 80	≥ 80	≥ 80	≥ 80
138.3 to 140.1	CCn1ncc(-c2cn(Cc3ccc(-c4noc(C(F)(F)F)n4)cc3)nn2)c1C [Compound 1.2, 3-[4-[[4-(1-ethyl-5-methyl-pyrazol-4-yl)triazol-1-yl]methyl]phenyl]-5-(trifluoromethyl)-1,2,4-oxadiazole]	≥ 80	≥ 80	≥ 80	≥ 80	≥ 80
36 to 41	FC(F)(F)c1nc(-c2ccc(Cn3cccn3)cc2)no1 [Compound 1.16, 3-[4-(pyrazol-1-ylmethyl)phenyl]-5-(trifluoromethyl)-1,2,4-oxadiazole]	≥ 80	≥ 80	≥ 80	≥ 80	≥ 80
